Source: PMC2981816, “Oxalyl retro-peptide gelators. Synthesis, gelation properties and stereochemical effects” (Beilstein Journal of Organic Chemistry, 2010)

Columns and labels:
Assay type in all cases: physicochemical
[1] = Gelation test: gelator effectiveness (Geff) and minimal gelation concentration in solvents and solvent mixtures; design: key to Gelator effectiveness (Geff): sol.: soluble; ins.: insoluble; cr.: crystallization; [A]: gel/sol mixture; details: for Gelator effectiveness (Geff): Table 1
Protocol: Gelation observed for selected gelator–solvent pairs is expressed by gelator effectiveness (Geff, mL) corresponding to the maximal volume of solvent that could be immobilized by 10 mg of the gelator (Table 1). […] However, 3a and 5a also gelled small to moderate volumes of EtOH and rac-2-octanol, whilst Leu incorporating 1a formed gels with the more lipophilic solvents, decalin and tetralin. […] Apparently, the retro-peptides incorporating aliphatic and aromatic amino acids are less versatile gelators compared to retro-peptides containing […] amino acid fragments. The latter points to the importance of intermolecular lipophilic interactions for the stabilization of gel assemblies being stronger in the case of identical amino acids either lipophilic or aromatic, and weaker for mixed aromatic-lipophilic amino acid fragments present in the gelator molecule.

[2] = TEM of gel networks (PWK negative staining), fiber diameters; details: water/DMSO gel
Source text: TEM images of diastereomeric (S,S)-1a and (S,R)-1a water/DMSO gels (Figure 2 and Figure 3) show highly distinct morphology of gel networks. In the first gel rather straight fibers and fiber bundles with diameters in the range of 40–100 nm could be observed. […] As observed earlier for other gel systems, gelator effectiveness Geff depends not only solubility but also depends on the thickness of fibers constituting the network. […] The TEM observed thicknesses of gel aggregates existing in water/DMSO and toluene gels could be also correlated with gelator effectiveness (Geff, mL, see Table 1 and Table 2). It appears that (S,R)-1b (Geff 19.5 mL, water/DMSO gel) organized in thinner fibers is more than twice effective a gelator than its diasteroisomer (S,S)-1a (Geff 8.0 mL, water/DMSO gel) which forms thicker fiber bundles. In the toluene gel, (S,R)-1b organizes into wide and short tapes with low networking capacity which is reflected in a very low (Geff 0.15 mL) gelator effectiveness. page 11: TEM and SEM investigations: transmission electron micrographs were taken on an EM 10 A Zeiss or FEI Morgagni 268D transmission electron microscope. A small amount of sample was placed on carbon-coated grid (copper, 100 mesh). The sample was negatively stained with PWK (dipotassium phosphotungstate). […]

[3] = Gelation test: gelator effectiveness (Geff) and minimal gelation concentration in solvents and solvent mixtures

For `CC(C)C[C@H](NC(=O)[C@H](CC(C)C)NC(=O)C(=O)N[C@@H](CC(C)C)C(=O)N[C@@H](CC(C)C)C(=O)O)C(=O)O` [(S,S)-1a, (S,S)-bis(LeuLeu)], the “Gelator effectiveness (Geff)” value ([1]; max. volume immobilized by 10 mg gelator, CH2Cl2) was “ins”, the “Gelator effectiveness (Geff)” value ([1]; max. volume immobilized by 10 mg gelator, CH3CN) was “cr” and the “Gelator effectiveness (Geff)” value ([1]; max. volume immobilized by 10 mg gelator, EtOH) was “sol”. For the same compound, the “Gelator effectiveness (Geff)” value ([1]; max. volume immobilized by 10 mg gelator, H2O/DMF mixture, given as volume + volume) was 5.84+3.25 mL, the “Gelator effectiveness (Geff)” value ([1]; max. volume immobilized by 10 mg gelator, H2O/DMSO mixture, given as volume + volume) was 5.09+2.98 mL and the “Gelator effectiveness (Geff)” value ([1]; max. volume immobilized by 10 mg gelator, THF) was “sol”. For the same compound, the “Gelator effectiveness (Geff)” value ([1]; max. volume immobilized by 10 mg gelator, decalin) was 0.2 mL, the “Gelator effectiveness (Geff)” value ([1]; max. volume immobilized by 10 mg gelator, p-xylene) was “ins” and the “Gelator effectiveness (Geff)” value ([1]; max. volume immobilized by 10 mg gelator, tetralin) was 1.8 mL. The “Gelator effectiveness (Geff)” value ([1]; max. volume immobilized by 10 mg gelator, toluene) was “cr”, the “Gelator effectiveness (Geff)” value ([1]; max. volume immobilized by 10 mg gelator, ±2-octanol) was “ins” and the “Gelator effectiveness (Geff)” value ([1]; maximal volume of solvent immobilized by 10 mg of gelator, solvent H2O) was “ins”. For the same compound, the “Geff, total volume” value ([1]; water/DMSO gel, total of both solvent volumes, 10 mg gelator) was 8.0 mL, the “times more effective in gelation than 3a and 5a” value ([1]; water/DMSO or DMF mixtures) was “more than 2 times” and the “fiber / fiber bundle diameter” value [2] was 40–100 nm. The solubility in water [3] was “insoluble”.
